The results in this text go back to patent publication US9840509B2, “Heterocyclic compounds” (CADILA HEALTHCARE LIMITED, priority 2014, dated 2017).

Bounds are passed on as bounds.

One data set deals with T1, CYP 2C9 (Homo sapiens, UniProt P11712).
T1 construct: from tissue; host or cells: human liver microsomes
As to the kind of experiment: CYP inhibition in human liver microsomes, 2C9. Particulars: pH 7.4, @ 10 μM concn. The class given is in vitro ADME. An outline of the steps:
(§1)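 Human liver microsomes in 100 mM phosphate pH 7.4 with CYP-specific probe substrate were incubated with test compound at […] and 10 μM, started with 1 mM NADPH at 37° C. Reactions were stopped with acetonitrile, and marker-reaction metabolites were quantified by LC-MS/MS. Final solvent was ≤0.2%.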

The target in another data set is T2, CYP 2D6 (Homo sapiens, UniProt P10635).
T2 construct: from tissue; host or cells: human liver microsomes
T2 sequence (P10635 whole entry): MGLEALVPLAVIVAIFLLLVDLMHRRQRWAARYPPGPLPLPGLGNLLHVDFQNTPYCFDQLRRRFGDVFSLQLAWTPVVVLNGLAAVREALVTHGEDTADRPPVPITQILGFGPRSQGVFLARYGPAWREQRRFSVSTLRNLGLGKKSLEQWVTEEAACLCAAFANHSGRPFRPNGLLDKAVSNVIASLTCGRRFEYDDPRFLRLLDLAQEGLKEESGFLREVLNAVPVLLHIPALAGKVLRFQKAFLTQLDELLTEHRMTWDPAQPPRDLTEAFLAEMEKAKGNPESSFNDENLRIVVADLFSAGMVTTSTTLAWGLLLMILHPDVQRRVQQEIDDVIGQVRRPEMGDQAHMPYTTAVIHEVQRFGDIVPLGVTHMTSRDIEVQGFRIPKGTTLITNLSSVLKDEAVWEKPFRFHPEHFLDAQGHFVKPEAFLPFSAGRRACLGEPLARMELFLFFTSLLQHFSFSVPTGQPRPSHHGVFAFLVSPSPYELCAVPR
As to the kind of experiment: CYP inhibition in human liver microsomes, 2D6. The class given is in vitro ADME. The settings on record: pH 7.4, @ 10 μM concn. The procedure, abridged: as §1
For orientation: Liver microsomes are vesicles of endoplasmic reticulum, rich in cytochrome P450 enzymes.

The subject of the next data set is SCW Arthritis Model. As to the kind of experiment: SCW Arthritis model (PGPS-induced paw swelling). Format: in vivo, Female Sprague dawley (SD) rats. The settings on record: Dose: 10 mpk, po, rats, Mean ± SD, n = 8. The protocol:
All the animal experiments were carried out in female rats and mice, bred in-house. Animals were housed in groups of 6 animals per cage, for a week, in order to habituate them to vivarium conditions (25±4° C., 60-65% relative humidity, 12: 12 h light: dark cycle, with lights on at 7.30 am). All the animal experiments were carried out according to the internationally valid guidelines following approval by the ‘Zydus Research Center animal ethical committee’. SCW Arthritis Female Sprague dawley (SD) rats were primed with an intra-articular injection of 20 μl of peptidoglycan polysaccharide (PGPS), at 0.5 mg/ml of rhamnose in the right ankle. At 2 weeks the paw swelling were measured using a plethysmometer and rats assigned to groups based on initial paw swelling. On day 14 after model initiation, rats were dosed orally (po) with the test compounds. Following the dose administration, 1 h later, the rats received a booster dose of 0.5 ml of PGPS (0.5 mg/ml of rhamnose) via i.v. injection using their tail vein. Compounds were dosed for the following two more days and their paw volumes were measured for 3 more days. The efficacy of the compound was determined as percentage inhibition of paw swelling verses the control (untreated) group.

The subject of a further data set is TMD-8 cells. As to the kind of experiment: Diffused large B cell lymphoma xenografts using TMD-8 cell line. Format: in vivo, Female SCID mice. Particulars: Dose: 10 mpk, po, SCID mice, Mean ± SD, n = 8. Here is the method:
(§2) All the animal experiments were carried out in female rats and mice, bred in-house. Animals were housed in groups of 6 animals per cage, for a week, in order to habituate them to vivarium conditions (25±4° C., 60-65% relative humidity, 12: 12 h light: dark cycle, with lights on at 7.30 am). All the animal experiments were carried out according to the internationally valid guidelines following approval by the ‘Zydus Research Center animal ethical committee’.
Diffused Large B Cell Lymphoma Xenografts Using TMD-8 Cell Line
Female SCID mice were inoculated sc with 10×10^6 TMD-8 cells in 0.1 mL of PBS to the right flank. Animals were observed twice weekly for occurrence of tumor. Once the tumors became palpable (around 100 mm^3) around 14 days after injection, treatment was initiated via oral route. Tumor volume was determined every alternate day using digital calipers and the tumor volume was calculated using the formula: [length/2]×[width^2]. Body weights of the animals were also recorded 3 times a week as a measure of treatment related side effect. Treatment was continued for two more weeks and inhibition of tumor volume compared to vehicle control was considered as efficacy endpoint.

For another data set, the system named is CIA Arthritis Model. As to the kind of experiment: Collagen induced arthritis (CIA) study in mice. The class given is in vivo. Particulars: Dose: 10 mpk, po, Mean ± SD, n = 8. Here is the method:
as §2
Protocol for Collagen Induced Arthritis (CIA) Study in Mice
CIA is a frequently used animal model of human RA (Courtenay, J. S., Dallman, M. J., Dayan, A. D., Martin, A. and Mosedale, B., Nature, 1980, 283, 666-668; Bevaart, L., Vervoordeldonk, M. J., Tak, P. P., Methods Mol. Biol., 2010, 602, 181-192). Following 7 days acclimation, mice were randomly assigned to groups according body weight. Mice were immunized subcutaneously in the tail using bovine type II collagen mix in complete Freund's adjuvant (CFA). Twenty-one days after the first immunization, mice were given booster dose of collagen in incomplete Freund's adjuvant (IFA). Mice were monitored every other day after the booster dose for the development of arthritis. Mice were recruited for the study once clinical signs were visible. Eight animals were assigned each of three groups [vehicle, positive control and test compounds] and treatment was continued for four weeks and percentage inhibition in clinical score is recorded as per graded score. Body weights of the animals were also recorded 3 times a week as a measure of treatment related side effect, paw thickness measured twice a week and blood serum are collected at termination for cytokines profile.

T1 sequence (P11712 whole entry): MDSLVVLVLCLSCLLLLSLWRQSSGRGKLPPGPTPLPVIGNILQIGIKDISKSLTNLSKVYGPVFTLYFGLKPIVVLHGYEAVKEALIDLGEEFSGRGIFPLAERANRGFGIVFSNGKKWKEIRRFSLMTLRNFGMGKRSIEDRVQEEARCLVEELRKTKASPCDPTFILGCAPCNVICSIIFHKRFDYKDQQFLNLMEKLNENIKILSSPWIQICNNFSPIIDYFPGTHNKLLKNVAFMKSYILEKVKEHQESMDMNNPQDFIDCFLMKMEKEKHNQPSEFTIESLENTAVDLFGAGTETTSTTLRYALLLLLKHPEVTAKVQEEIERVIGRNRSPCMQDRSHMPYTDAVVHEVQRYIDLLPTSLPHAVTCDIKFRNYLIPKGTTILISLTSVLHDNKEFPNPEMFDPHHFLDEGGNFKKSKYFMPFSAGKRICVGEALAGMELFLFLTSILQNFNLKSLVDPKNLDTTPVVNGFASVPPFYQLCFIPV

The inhibition is the share of the control response that was lost under treatment. The low end stands for a weak effect, the high end for a strong effect. Turning to `C=CC(=O)N1CC2CC(n3nc(-c4ccc(C(=O)N(C)c5cc(C)ccn5)cc4)c4c(N)ncnc43)CC2C1` (stereo not shown) [Compound 54, 4-(1-(2-acryloyloctahydrocyclopenta[c]pyrrol-5-yl)-4-amino-1H-pyrazolo[3,4-d]pyrimidin-3-yl)-N-methyl-N-(4-methylpyridin-2-yl)benzamide], the inhibition at 10 μM on CYP 2C9 and on CYP 2D6 was < 50% each time. The “% inhibition of paw inflammation, Day-16, in SCW Arthritis Model” value (from here on “% inhibition of paw inflammation”) in the data set with SCW Arthritis Model was 89.2 ± 10.3%. Further, in the data set with TMD-8 cells, the “% Inhibition in tumor volume, Day-16, in TMD-8 Xenografts Model” value (shortened to “% Inhibition in tumor volume”) is listed as 92.1 ± 13.1%. The “% inhibition of clinical score, Day-28, in CIA Arthritis Model” value (“% inhibition of clinical score” below) in the data set on CIA Arthritis Model is reported as 98 ± 4.5%.

As for `C=CC(=O)N1CC2CC(n3nc(-c4ccc(-c5nnc(-c6cnccn6)s5)cc4)c4c(N)ncnc43)CC2C1` (stereo not shown) [Compound 46, 1-(5-(4-amino-3-(4-(5-(pyrazin-2-yl)-1,3,4-thiadiazol-2-yl)phenyl)-1H-pyrazolo[3,4-d]pyrimidin-1-yl)hexahydrocyclopenta[c]pyrrol-2(1H)-yl)prop-2-en-1-one], the inhibition at 10 μM against CYP 2C9 and at CYP 2D6 was < 50% each time. The “% inhibition of paw inflammation” value in the data set with SCW Arthritis Model was found to be 81.8 ± 11.2%. Also, the “% Inhibition in tumor volume” value in the data set on TMD-8 cells was determined as 54.3 ± 9.1%. The “% inhibition of clinical score” value with CIA Arthritis Model was 88 ± 7.1%.

For `C=CC(=O)N1CC2CC(n3nc(-c4ccc(C(=O)Nc5cc(C)ccn5)cn4)c4c(N)ncnc43)CC2C1` (stereo not shown) [Compound 42, 6-(1-(2-acryloyloctahydrocyclopenta[c]pyrrol-5-yl)-4-amino-1H-pyrazolo[3,4-d]pyrimidin-3-yl)-N-(4-methylpyridin-2-yl)nicotinamide], the inhibition at 10 μM on CYP 2C9 and at CYP 2D6 was < 50% each time. For the same compound, the “% inhibition of paw inflammation” value with SCW Arthritis Model came to 51.3 ± 9.7%. For the same compound, in the data set with TMD-8 cells, the “% Inhibition in tumor volume” value is listed as 62.2 ± 8.8%. In the data set with CIA Arthritis Model, the “% inhibition of clinical score” value came out at 100 ± 4.2%.

Regarding `C=CC(=O)N1CC2CC(N3C(=O)N(c4ccc(Oc5ccccc5)cc4)C4C(N)=NC=NC43)CC2C1` (stereo not shown) [Compound 25, 9-(2-acryloyloctahydrocyclopenta[c]pyrrol-5-yl)-6-amino-7-(4-phenoxyphenyl)-5,7-dihydro-4H-purin-8(9H)-one], the inhibition at 10 μM against CYP 2C9 and against CYP 2D6 was < 50% throughout. The “% inhibition of paw inflammation” value with SCW Arthritis Model came to 69.6 ± 12.7%. In addition, in the data set with TMD-8 cells, the “% Inhibition in tumor volume” value is listed as 50.2 ± 10.1%. Further, the “% inhibition of clinical score” value in the data set with CIA Arthritis Model stood at 90.1 ± 6.3%.

Regarding `C=CC(=O)N1CC2CC(n3nc(-c4ccc(NC(=O)c5ccccn5)cc4)c4c(N)ncnc43)CC2C1` (stereo not shown) [Compound 32, N-(4-(1-(2-acryloyloctahydrocyclopenta[c]pyrrol-5-yl)-4-amino-1H-pyrazolo[3,4-d]pyrimidin-3-yl)phenyl)picolinamide], the inhibition at 10 μM against CYP 2C9 and against CYP 2D6 was < 50% in each case. For the same compound, in the data set with SCW Arthritis Model, the “% inhibition of paw inflammation” value is 75.3 ± 6.2%. Also, the “% Inhibition in tumor volume” value with TMD-8 cells stood at 56.1 ± 8.2%. The “% inhibition of clinical score” value in the data set on CIA Arthritis Model is reported as 100 ± 3.9%.
